Test results from PubChem BioAssay (NCI).
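Each compound was tested at five concentrations against cells in 96-well plates for 48 hours. GI50 = concentration required for 50% inhibition of growth. TGI: concentration producing complete growth inhibition.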

Assays:
Assay in all cases: DTP human tumour cell line panel, 48 h
HOP-62 NSCLC = system: HOP-62 NSCLC
LOX IMVI melanoma = system: LOX IMVI melanoma
MDA-MB-231 breast = system: MDA-MB-231 breast
MDA-MB-435 = system: MDA-MB-435
OVCAR-3 ovarian = system: OVCAR-3 ovarian
OVCAR-4 ovarian = system: OVCAR-4 ovarian
SF-295 CNS = system: SF-295 CNS
SK-OV-3 ovarian = system: SK-OV-3 ovarian
U251 CNS = system: U251 CNS
UACC-62 melanoma = system: UACC-62 melanoma

Compound | GI50 (HOP-62 NSCLC) [nM] | TGI (HOP-62 NSCLC) [nM] | GI50 (LOX IMVI melanoma) [nM] | TGI (LOX IMVI melanoma) [nM] | GI50 (MDA-MB-231 breast) [nM] | TGI (MDA-MB-231 breast) [nM] | GI50 (MDA-MB-435) [nM] | TGI (MDA-MB-435) [nM] | GI50 (OVCAR-3 ovarian) [nM] | TGI (OVCAR-3 ovarian) [nM] | GI50 (OVCAR-4 ovarian) [nM] | TGI (OVCAR-4 ovarian) [nM] | GI50 (SF-295 CNS) [nM] | TGI (SF-295 CNS) [nM] | GI50 (SK-OV-3 ovarian) [nM] | TGI (SK-OV-3 ovarian) [nM] | GI50 (U251 CNS) [nM] | TGI (U251 CNS) [nM] | GI50 (UACC-62 melanoma) [nM] | TGI (UACC-62 melanoma) [nM]
Cc1cc(NCc2cc(Nc3ccnc4cc(Cl)ccc34)ccc2F)nc(N2CCN(C)CC2)n1 | 1620 | 4790 | 1260 | 2650 | 1640 | 3740 | 1520 | 2960 | 1760 | 3830 | 1560 | 8570 | 1090 | 2550 | 3310 | 9880 | 1780 | 4460 | 1910 | 3810
Cc1cc2[nH]c(=O)c3c4ccccc4cn3c2cc1C | 2710 | 8180 | 2040 | 4020 | 8340 | 23700 | 6000 | 19800 | 14000 | 28500 | 13500 | 27600 | 12200 | 28500 | 18400 | 34500 | 4030 | 14200 | 16700 | 31900
CN(C)CC1C(=O)O[C@H]2[C@H]1CC/C(COC(=O)c1cc3ccccc3[nH]1)=C\CC[C@@]1(C)O[C@@H]21 (stereo not given in full) | 2720 | 7980 | 500 | 992 | 2000 | 4630 | 1490 | 3200 | 672 | 1760 | 1570 | 3680 | 4870 | 18500 | 19900 | 39300 | 2300 | 5710 | 1720 | 3890
COc1cc(Cl)cc(-c2nn(-c3cccc(NC(=O)Nc4cc(C(F)(F)F)cc(C(F)(F)F)c4)c3)cc2-c2ccncc2)c1 | 851 | 2600 | 513 | 2290 | 726 | 2260 | 684 | 2620 | 364 | 2040 | 581 | 17500 | 622 | 2250 | 1220 | 6680 | 336 | 1360 | 416 | 1710
